Columns and labels:
Set-up in all cases: scale not given here
[1] = tested on: CHEAL Lambsquarters, Common; assay: Preemergence herbicidal evaluation, CHEAL; type: in vivo, Chenopodium album, L.; settings: preemergence
Method in brief: (§1)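 Seeds mixed with potting soil in cups, then sprayed preemergence with aqueous acetone test solution at about 0.013 to 0.800 kg per hectare equivalent. Cups kept under standard greenhouse care; plants rated on a visual scale four to five weeks after treatment.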

ABUTH Velvetleaf [2] = assay: Postemergence herbicidal evaluation, ABUTH; type: in vivo, Abutilon theophrasti, Medic.; settings: postemergence spray, rated about two-three weeks after treatment
Method in brief: (§2)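 Plants are raised for roughly two weeks, then treated postemergence with compound dispersed in acetone/water (80/20) plus 1.0% seed oil adjuvant, at rates of about 0.006 kg to 0.400 kg per hectare. After greenhouse care, damage is scored two to three weeks later.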

ORYSAT Rice, Tebonnet [3] = assay: Preemergence herbicidal evaluation, ORYSAT; type: in vivo, Oryza sativa, (L.); settings: preemergence
Method in brief: as §1

[4] = tested on: TRZAWR Wheat, Winter, cv Riband; assay: Postemergence herbicidal evaluation, TRZAWR; type: in vivo, Triticum aestivum; settings: postemergence spray, rated about two-three weeks after treatment
Method in brief: as §2

ECHOG Barnyardgrass [5] = assay: Preemergence herbicidal evaluation, ECHOG; type: in vivo, Echinochloa crus-galli, (L.) Beau; settings: preemergence
Method in brief: as §1

[6] = tested on: IPOHE Morningglory, Ivyleaf; assay: Postemergence herbicidal evaluation, IPOHE; type: in vivo, Ipomoea hederacea, (L.) Jacq.; settings: postemergence spray, rated about two-three weeks after treatment
Method in brief: as §2

GLXMAW Soybean, Williams [7] = assay: Preemergence herbicidal evaluation, GLXMAW; type: in vivo, Glycine max, (L.) Merr. cv Williams; settings: preemergence
Method in brief: as §1

ORYSAT Rice, Tebonnet [8] = assay: Postemergence herbicidal evaluation, ORYSAT; type: in vivo, Oryza sativa, (L.); settings: postemergence spray, rated about two-three weeks after treatment
Method in brief: as §2

ECHOG Barnyardgrass [9] = assay: Postemergence herbicidal evaluation, ECHOG; type: in vivo, Echinochloa crus-galli, (L.) Beau; settings: postemergence spray, rated about two-three weeks after treatment
Method in brief: as §2

ABUTH Velvetleaf [10] = assay: Preemergence herbicidal evaluation, ABUTH; type: in vivo, Abutilon theophrasti, Medic.; settings: preemergence
Method in brief: as §1

GALAP Galium [11] = assay: Preemergence herbicidal evaluation, GALAP; type: in vivo, Galium aparine; settings: preemergence
Method in brief: as §1

[12] = tested on: TRZAWR Wheat, Winter, cv Riband; assay: Preemergence herbicidal evaluation, TRZAWR; type: in vivo, Triticum aestivum; settings: preemergence
Method in brief: as §1

CASOB Sicklepod [13] = assay: Preemergence herbicidal evaluation, CASOB; type: in vivo, Cassia obtusifolia, L.; settings: preemergence
Method in brief: as §1

SETVI Foxtail, Green [14] = assay: Preemergence herbicidal evaluation, SETVI; type: in vivo, Setaria viridis, (L.) Beau; settings: preemergence
Method in brief: as §1

[15] = tested on: IPOHE Morningglory, Ivyleaf; assay: Preemergence herbicidal evaluation, IPOHE; type: in vivo, Ipomoea hederacea, (L.) Jacq.; settings: preemergence
Method in brief: as §1

AMBEL Ragweed, Common [16] = assay: Postemergence herbicidal evaluation, AMBEL; type: in vivo, Ambrosia artemisifolia, L.; settings: postemergence spray, rated about two-three weeks after treatment
Method in brief: as §2

CASOB Sicklepod [17] = assay: Postemergence herbicidal evaluation, CASOB; type: in vivo, Cassia obtusifolia, L.; settings: postemergence spray, rated about two-three weeks after treatment
Method in brief: as §2

GLXMAW Soybean, Williams [18] = assay: Postemergence herbicidal evaluation, GLXMAW; type: in vivo, Glycine max, (L.) Merr. cv Williams; settings: postemergence spray, rated about two-three weeks after treatment
Method in brief: as §2

ZEAMX Corn, Field [19] = assay: Preemergence herbicidal evaluation, ZEAMX; type: in vivo, Zea mays, L. (Sammel-Bezeichnung); settings: preemergence
Method in brief: as §1

[20] = tested on: CHEAL Lambsquarters, Common; assay: Postemergence herbicidal evaluation, CHEAL; type: in vivo, Chenopodium album, L.; settings: postemergence spray, rated about two-three weeks after treatment
Method in brief: as §2

GALAP Galium [21] = assay: Postemergence herbicidal evaluation, GALAP; type: in vivo, Galium aparine; settings: postemergence spray, rated about two-three weeks after treatment
Method in brief: as §2

SETVI Foxtail, Green [22] = assay: Postemergence herbicidal evaluation, SETVI; type: in vivo, Setaria viridis, (L.) Beau; settings: postemergence spray, rated about two-three weeks after treatment
Method in brief: as §2

ZEAMX Corn, Field [23] = assay: Postemergence herbicidal evaluation, ZEAMX; type: in vivo, Zea mays, L. (Sammel-Bezeichnung); settings: postemergence spray, rated about two-three weeks after treatment
Method in brief: as §2

AMBEL Ragweed, Common [24] = assay: Preemergence herbicidal evaluation, AMBEL; type: in vivo, Ambrosia artemisifolia, L.; settings: preemergence
Method in brief: as §1

COC(=O)COc1ccc(C)c(-n2nnc3cc(F)c(-n4c(=O)cc(C(F)(F)F)n(C)c4=O)cc32)c1 [Example 38]
3.0: Postemergence herbicidal rating ABUTH (ABUTH Velvetleaf [2]; 0.008 kg/ha) | Postemergence herbicidal rating ECHCG (ECHOG Barnyardgrass [9]; 0.032 kg/ha) | Postemergence herbicidal rating ECHCG (ECHOG Barnyardgrass [9]; 0.062 kg/ha) | Postemergence herbicidal rating CHEAL ([20]; 0.062 kg/ha) | Postemergence herbicidal rating GALAP (GALAP Galium [21]; 0.032 kg/ha)
9.0: CHEAL herbicidal rating ([1]; rate 0.016 kg/ha) | CHEAL herbicidal rating ([1]; rate 0.032 kg/ha) | CHEAL herbicidal rating ([1]; rate 0.062 kg/ha) | CHEAL herbicidal rating ([1]; rate 0.125 kg/ha) | Postemergence herbicidal rating ABUTH (ABUTH Velvetleaf [2]; 0.032 kg/ha) | Postemergence herbicidal rating ABUTH (ABUTH Velvetleaf [2]; 0.062 kg/ha) | Postemergence herbicidal rating IPOHE ([6]; 0.032 kg/ha) | Postemergence herbicidal rating IPOHE ([6]; 0.062 kg/ha) | ABUTH herbicidal rating (ABUTH Velvetleaf [10]; rate 0.125 kg/ha) | SETVI herbicidal rating (SETVI Foxtail, Green [14]; rate 0.125 kg/ha) | Postemergence herbicidal rating AMBEL (AMBEL Ragweed, Common [16]; 0.062 kg/ha) | Postemergence herbicidal rating SETVI (SETVI Foxtail, Green [22]; 0.062 kg/ha) | AMBEL herbicidal rating (AMBEL Ragweed, Common [24]; rate 0.125 kg/ha)
4.0: Postemergence herbicidal rating GALAP (GALAP Galium [21]; 0.062 kg/ha)
6.0: Postemergence herbicidal rating TRZAWR ([4]; 0.032 kg/ha) | Postemergence herbicidal rating ORYSAT (ORYSAT Rice, Tebonnet [8]; 0.062 kg/ha) | Postemergence herbicidal rating GLXMAW (GLXMAW Soybean, Williams [18]; 0.032 kg/ha)
4.5: Postemergence herbicidal rating TRZAWR ([4]; 0.016 kg/ha)
1.0: Postemergence herbicidal rating ORYSAT (ORYSAT Rice, Tebonnet [8]; 0.008 kg/ha) | Postemergence herbicidal rating CASOB (CASOB Sicklepod [17]; 0.062 kg/ha)
7.0: Postemergence herbicidal rating AMBEL (AMBEL Ragweed, Common [16]; 0.016 kg/ha) | Postemergence herbicidal rating AMBEL (AMBEL Ragweed, Common [16]; 0.032 kg/ha) | Postemergence herbicidal rating SETVI (SETVI Foxtail, Green [22]; 0.032 kg/ha)
8.0: Postemergence herbicidal rating ABUTH (ABUTH Velvetleaf [2]; 0.016 kg/ha) | Postemergence herbicidal rating TRZAWR ([4]; 0.062 kg/ha) | Postemergence herbicidal rating ZEAMX (ZEAMX Corn, Field [23]; 0.016 kg/ha) | Postemergence herbicidal rating ZEAMX (ZEAMX Corn, Field [23]; 0.032 kg/ha) | Postemergence herbicidal rating ZEAMX (ZEAMX Corn, Field [23]; 0.062 kg/ha)
5.5: Postemergence herbicidal rating GLXMAW (GLXMAW Soybean, Williams [18]; 0.008 kg/ha) | Postemergence herbicidal rating GLXMAW (GLXMAW Soybean, Williams [18]; 0.016 kg/ha)
7.5: Postemergence herbicidal rating GLXMAW (GLXMAW Soybean, Williams [18]; 0.062 kg/ha) | Postemergence herbicidal rating ZEAMX (ZEAMX Corn, Field [23]; 0.008 kg/ha)
5.0: Postemergence herbicidal rating IPOHE ([6]; 0.008 kg/ha) | Postemergence herbicidal rating IPOHE ([6]; 0.016 kg/ha)
2.0: Postemergence herbicidal rating ORYSAT (ORYSAT Rice, Tebonnet [8]; 0.016 kg/ha) | ABUTH herbicidal rating (ABUTH Velvetleaf [10]; rate 0.062 kg/ha) | CASOB herbicidal rating (CASOB Sicklepod [13]; rate 0.125 kg/ha) | Postemergence herbicidal rating AMBEL (AMBEL Ragweed, Common [16]; 0.008 kg/ha) | Postemergence herbicidal rating CHEAL ([20]; 0.032 kg/ha)
3.5: Postemergence herbicidal rating TRZAWR ([4]; 0.008 kg/ha) | Postemergence herbicidal rating ORYSAT (ORYSAT Rice, Tebonnet [8]; 0.032 kg/ha)
0.0: ORYSAT herbicidal rating (ORYSAT Rice, Tebonnet [3]; rate 0.016 kg/ha) | ORYSAT herbicidal rating (ORYSAT Rice, Tebonnet [3]; rate 0.032 kg/ha) | ORYSAT herbicidal rating (ORYSAT Rice, Tebonnet [3]; rate 0.062 kg/ha) | ORYSAT herbicidal rating (ORYSAT Rice, Tebonnet [3]; rate 0.125 kg/ha) | ECHCG herbicidal rating (ECHOG Barnyardgrass [5]; rate 0.016 kg/ha) | ECHCG herbicidal rating (ECHOG Barnyardgrass [5]; rate 0.032 kg/ha) | ECHCG herbicidal rating (ECHOG Barnyardgrass [5]; rate 0.062 kg/ha) | ECHCG herbicidal rating (ECHOG Barnyardgrass [5]; rate 0.125 kg/ha) | GLXMAW herbicidal rating (GLXMAW Soybean, Williams [7]; rate 0.016 kg/ha) | GLXMAW herbicidal rating (GLXMAW Soybean, Williams [7]; rate 0.032 kg/ha) | GLXMAW herbicidal rating (GLXMAW Soybean, Williams [7]; rate 0.062 kg/ha) | GLXMAW herbicidal rating (GLXMAW Soybean, Williams [7]; rate 0.125 kg/ha) | Postemergence herbicidal rating ECHCG (ECHOG Barnyardgrass [9]; 0.008 kg/ha) | Postemergence herbicidal rating ECHCG (ECHOG Barnyardgrass [9]; 0.016 kg/ha) | ABUTH herbicidal rating (ABUTH Velvetleaf [10]; rate 0.016 kg/ha) | ABUTH herbicidal rating (ABUTH Velvetleaf [10]; rate 0.032 kg/ha) | GALAP herbicidal rating (GALAP Galium [11]; rate 0.016 kg/ha) | GALAP herbicidal rating (GALAP Galium [11]; rate 0.032 kg/ha) | GALAP herbicidal rating (GALAP Galium [11]; rate 0.062 kg/ha) | GALAP herbicidal rating (GALAP Galium [11]; rate 0.125 kg/ha) | TRZAWR herbicidal rating ([12]; rate 0.016 kg/ha) | TRZAWR herbicidal rating ([12]; rate 0.032 kg/ha) | TRZAWR herbicidal rating ([12]; rate 0.062 kg/ha) | TRZAWR herbicidal rating ([12]; rate 0.125 kg/ha) | CASOB herbicidal rating (CASOB Sicklepod [13]; rate 0.016 kg/ha) | CASOB herbicidal rating (CASOB Sicklepod [13]; rate 0.032 kg/ha) | CASOB herbicidal rating (CASOB Sicklepod [13]; rate 0.062 kg/ha) | SETVI herbicidal rating (SETVI Foxtail, Green [14]; rate 0.016 kg/ha) | SETVI herbicidal rating (SETVI Foxtail, Green [14]; rate 0.032 kg/ha) | SETVI herbicidal rating (SETVI Foxtail, Green [14]; rate 0.062 kg/ha) | IPOHE herbicidal rating ([15]; rate 0.016 kg/ha) | IPOHE herbicidal rating ([15]; rate 0.032 kg/ha) | IPOHE herbicidal rating ([15]; rate 0.062 kg/ha) | Postemergence herbicidal rating CASOB (CASOB Sicklepod [17]; 0.008 kg/ha) | Postemergence herbicidal rating CASOB (CASOB Sicklepod [17]; 0.016 kg/ha) | Postemergence herbicidal rating CASOB (CASOB Sicklepod [17]; 0.032 kg/ha) | ZEAMX herbicidal rating (ZEAMX Corn, Field [19]; rate 0.016 kg/ha) | ZEAMX herbicidal rating (ZEAMX Corn, Field [19]; rate 0.032 kg/ha) | ZEAMX herbicidal rating (ZEAMX Corn, Field [19]; rate 0.062 kg/ha) | ZEAMX herbicidal rating (ZEAMX Corn, Field [19]; rate 0.125 kg/ha) | Postemergence herbicidal rating CHEAL ([20]; 0.008 kg/ha) | Postemergence herbicidal rating CHEAL ([20]; 0.016 kg/ha) | Postemergence herbicidal rating GALAP (GALAP Galium [21]; 0.008 kg/ha) | Postemergence herbicidal rating GALAP (GALAP Galium [21]; 0.016 kg/ha) | Postemergence herbicidal rating SETVI (SETVI Foxtail, Green [22]; 0.008 kg/ha) | Postemergence herbicidal rating SETVI (SETVI Foxtail, Green [22]; 0.016 kg/ha) | AMBEL herbicidal rating (AMBEL Ragweed, Common [24]; rate 0.016 kg/ha) | AMBEL herbicidal rating (AMBEL Ragweed, Common [24]; rate 0.032 kg/ha) | AMBEL herbicidal rating (AMBEL Ragweed, Common [24]; rate 0.062 kg/ha)

— US20020111274A1, “1-alkyl-3-[1-(substituted phenyl) benzotriazol-6-yl] uracils” (BASF Aktiengesellschaft, priority 2000, published 2002)
